One data set has as its target T1, 5-HT1A (h) (Homo sapiens, UniProt P08908).
T1 construct: purchased Eurofins Cerep (SafetyScreen44), recognised from the panel format
T1 sequence (P08908 1-422): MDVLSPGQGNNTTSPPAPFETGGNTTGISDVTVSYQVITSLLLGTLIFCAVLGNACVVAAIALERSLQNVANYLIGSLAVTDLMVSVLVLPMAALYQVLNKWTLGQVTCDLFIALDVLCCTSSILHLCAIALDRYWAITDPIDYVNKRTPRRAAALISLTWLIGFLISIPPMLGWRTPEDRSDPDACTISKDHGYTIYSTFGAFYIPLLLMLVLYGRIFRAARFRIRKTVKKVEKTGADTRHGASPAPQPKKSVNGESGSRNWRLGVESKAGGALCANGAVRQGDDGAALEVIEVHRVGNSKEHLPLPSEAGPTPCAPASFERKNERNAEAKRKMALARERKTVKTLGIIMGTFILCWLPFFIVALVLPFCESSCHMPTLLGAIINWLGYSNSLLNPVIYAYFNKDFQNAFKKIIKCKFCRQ
The data set can be described thus: In vitro CEREP profiling, 5-HT1A (h) (agonist radioligand). To be noted: test compound concentration 10 uM. It is filed as binding. The source says:
(§1) Supplement media-1.zip/Safety_Panel_Profile.csv, table | column: perc_inhibition

A further data set concerns the target T2, delta (DOP) (h) (Homo sapiens, UniProt P41143).
T2 construct: purchased Eurofins Cerep (SafetyScreen44), recognised from the panel format
The data set can be described thus: In vitro CEREP profiling, delta (DOP) (h) (agonist radioligand). Type of data set: binding. To be noted: test compound concentration 10 uM.
Description: as §1

The target of a further data set is T3, MAO-A (Rattus norvegicus, UniProt P21396).
T3 construct: purchased Eurofins Cerep (SafetyScreen44), recognised from the panel format
T3 sequence (P21396 1-526): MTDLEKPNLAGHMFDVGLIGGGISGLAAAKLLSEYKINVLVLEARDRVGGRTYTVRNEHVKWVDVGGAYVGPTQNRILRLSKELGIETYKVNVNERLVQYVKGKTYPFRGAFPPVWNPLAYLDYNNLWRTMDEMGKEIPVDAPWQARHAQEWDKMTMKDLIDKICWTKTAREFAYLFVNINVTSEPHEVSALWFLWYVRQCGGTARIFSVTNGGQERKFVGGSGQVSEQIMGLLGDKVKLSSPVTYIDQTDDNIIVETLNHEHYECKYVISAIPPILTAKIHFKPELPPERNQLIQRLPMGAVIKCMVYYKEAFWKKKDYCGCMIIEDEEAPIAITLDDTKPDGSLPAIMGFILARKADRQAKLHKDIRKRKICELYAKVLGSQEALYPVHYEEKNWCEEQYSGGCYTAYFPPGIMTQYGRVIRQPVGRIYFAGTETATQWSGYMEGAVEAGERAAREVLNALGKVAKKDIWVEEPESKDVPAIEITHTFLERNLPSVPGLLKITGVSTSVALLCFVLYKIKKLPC
The data set can be described thus: In vitro CEREP profiling, MAO-A (antagonist radioligand). To be noted: test compound concentration 10 uM. Type of data set: binding.
Description: as §1

For a further data set, the target named is T4, PKCα(h) (Homo sapiens, UniProt P17252).
T4 construct: gene PRKCA
Put plainly: biochemical. More on the design: In vitro kinase panel profiling, per cent remaining kinase activity at 10 uM. The conditions noted are these: batch_name=ASAP-0011221-002; atp_concentration=45; read-out: % of control remaining. The source says:
(§2) We derisk potential for off-target activity by profiling the compound in a CEREP panel, a standard secondary pharmacology assessment, as well as a kinase panel to derisk a potential hinge-binding motif in our leads, and a PARP panel to derisk activity against human […]. Reassuringly, the compounds are selective, with the only off-targets being moderate human CHRM2 and KOR receptors activity associated with ASAP-0011198.

The next data set has as its target T5, MAPKAP-K2(h) (Homo sapiens, UniProt P49137).
T5 construct: gene MAPKAPK2
Put plainly: biochemical. More on the design: In vitro kinase panel profiling, per cent remaining kinase activity at 10 uM. The conditions noted are these: batch_name=ASAP-0011221-002; atp_concentration=90; read-out: % of control remaining.
Description: as §2

For another data set, the target named is T6, CB2 (h) (Homo sapiens, UniProt P34972).
T6 construct: purchased Eurofins Cerep (SafetyScreen44), recognised from the panel format
Put plainly: In vitro CEREP profiling, CB2 (h) (agonist radioligand). It is filed as binding. To be noted: test compound 10 uM.
Description: as §1

The next data set addresses T7, 5-HT1B (h) (Homo sapiens, UniProt P28222).
T7 construct: purchased Eurofins Cerep (SafetyScreen44), recognised from the panel format
Put plainly: In vitro CEREP profiling, 5-HT1B (h) (antagonist radioligand). It is filed as binding. The conditions noted are these: test compound concentration 10 uM.
Description: as §1

In the next data set the test system is HeLa-ACE2 cells. The conditions noted are these: read-out: 50.0; ASAP-0008327-001=ASAP-0011221-001; 1440 min; 50.0, 1440 min.
The test system of data set [1] is Ca2+ channel (L, dihydropyridine site). Put plainly: In vitro CEREP profiling, Ca2+ channel (L, dihydropyridine site) (antagonist radioligand). Type of data set: binding. The conditions noted are these: test compound concentration 10 uM.
Description: as §1

In another data set the target is T8, dopamine transporter (h) (Homo sapiens, UniProt Q01959).
T8 construct: purchased Eurofins Cerep (SafetyScreen44), recognised from the panel format
Put plainly: In vitro CEREP profiling, dopamine transporter (h) (antagonist radioligand). It is filed as binding. To be noted: test compound concentration 10 uM.
Description: as §1

T6 sequence (P34972 whole entry): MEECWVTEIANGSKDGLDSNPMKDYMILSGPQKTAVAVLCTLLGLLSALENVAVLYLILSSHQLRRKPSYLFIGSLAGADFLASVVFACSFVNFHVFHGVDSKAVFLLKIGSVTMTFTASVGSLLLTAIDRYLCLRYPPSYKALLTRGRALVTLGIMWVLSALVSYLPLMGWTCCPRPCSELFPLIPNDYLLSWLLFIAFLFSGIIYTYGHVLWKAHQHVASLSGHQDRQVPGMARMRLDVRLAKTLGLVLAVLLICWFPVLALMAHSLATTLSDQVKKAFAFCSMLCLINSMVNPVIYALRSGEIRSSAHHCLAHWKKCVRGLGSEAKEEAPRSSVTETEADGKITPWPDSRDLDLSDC
T5 sequence (P49137 whole entry): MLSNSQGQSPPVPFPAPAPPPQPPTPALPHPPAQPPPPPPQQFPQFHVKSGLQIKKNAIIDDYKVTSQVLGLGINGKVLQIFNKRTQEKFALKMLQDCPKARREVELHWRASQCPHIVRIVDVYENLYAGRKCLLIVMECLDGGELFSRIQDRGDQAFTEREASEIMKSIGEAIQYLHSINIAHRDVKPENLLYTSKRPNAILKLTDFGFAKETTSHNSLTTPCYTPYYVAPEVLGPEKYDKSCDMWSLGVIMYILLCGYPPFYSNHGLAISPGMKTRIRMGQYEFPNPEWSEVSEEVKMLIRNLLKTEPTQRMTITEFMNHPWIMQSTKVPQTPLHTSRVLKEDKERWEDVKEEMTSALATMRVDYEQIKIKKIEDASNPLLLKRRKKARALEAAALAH
T8 sequence (Q01959 whole entry): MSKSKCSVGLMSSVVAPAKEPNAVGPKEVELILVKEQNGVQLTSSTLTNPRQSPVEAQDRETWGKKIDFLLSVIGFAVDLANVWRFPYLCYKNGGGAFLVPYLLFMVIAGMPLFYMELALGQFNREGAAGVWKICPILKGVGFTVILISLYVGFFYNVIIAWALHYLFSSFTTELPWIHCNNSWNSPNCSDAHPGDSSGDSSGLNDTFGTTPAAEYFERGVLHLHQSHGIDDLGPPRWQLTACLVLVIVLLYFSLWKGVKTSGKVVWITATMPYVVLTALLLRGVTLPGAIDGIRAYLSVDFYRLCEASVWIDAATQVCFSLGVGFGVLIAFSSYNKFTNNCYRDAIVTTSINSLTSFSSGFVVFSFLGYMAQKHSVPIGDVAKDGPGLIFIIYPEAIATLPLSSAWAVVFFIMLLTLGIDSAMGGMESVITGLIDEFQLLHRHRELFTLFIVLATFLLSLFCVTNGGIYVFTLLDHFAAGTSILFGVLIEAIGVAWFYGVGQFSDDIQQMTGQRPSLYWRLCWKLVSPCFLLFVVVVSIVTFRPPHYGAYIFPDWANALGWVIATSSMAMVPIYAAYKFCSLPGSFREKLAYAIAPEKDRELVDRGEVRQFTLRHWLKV
T2 sequence (P41143 whole entry): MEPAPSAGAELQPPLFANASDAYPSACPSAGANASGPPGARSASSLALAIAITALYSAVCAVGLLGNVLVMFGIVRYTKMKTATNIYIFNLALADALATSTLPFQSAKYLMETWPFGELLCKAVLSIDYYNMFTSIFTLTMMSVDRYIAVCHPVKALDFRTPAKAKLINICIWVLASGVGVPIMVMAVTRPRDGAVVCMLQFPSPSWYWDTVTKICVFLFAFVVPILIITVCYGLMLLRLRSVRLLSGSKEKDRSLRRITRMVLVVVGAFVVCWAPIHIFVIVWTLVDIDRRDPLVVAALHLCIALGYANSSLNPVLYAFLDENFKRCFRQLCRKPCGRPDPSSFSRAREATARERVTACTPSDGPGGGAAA
T7 sequence (P28222 whole entry): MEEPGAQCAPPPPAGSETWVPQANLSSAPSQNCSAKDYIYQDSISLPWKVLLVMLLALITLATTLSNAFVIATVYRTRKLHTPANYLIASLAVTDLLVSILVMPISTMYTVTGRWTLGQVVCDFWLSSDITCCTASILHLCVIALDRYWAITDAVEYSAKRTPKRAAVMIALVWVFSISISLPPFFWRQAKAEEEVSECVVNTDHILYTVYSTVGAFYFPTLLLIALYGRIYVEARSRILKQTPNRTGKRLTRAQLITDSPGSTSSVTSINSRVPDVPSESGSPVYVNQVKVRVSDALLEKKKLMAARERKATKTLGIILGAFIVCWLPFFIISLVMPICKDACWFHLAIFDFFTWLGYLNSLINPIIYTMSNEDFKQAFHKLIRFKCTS

For `Cn1ncc(-c2cc3c(N[C@@H](c4ccc5c(n4)OCCO5)C(C)(C)C)ncnc3[nH]2)c1C#N` [ASAP-0011221], the “perc_inhibition (% inhibition of the binding of a ligand specific for each target)” value came out at 15% at 5-HT1A (h); 15% at delta (DOP) (h); 10% at MAO-A; 31% at CB2 (h); 18% on 5-HT1B (h); 21% in data set [1]. Besides, on dopamine transporter (h), the “perc_inhibition (% inhibition of the binding of a ligand specific for each target)” value is on record as 50%. The values for the remaining activity at 10 µM at PKCα(h) and on MAPKAP-K2(h) were 87% and 110%, respectively. Moreover, the CC50 in the data set with HeLa-ACE2 cells was above 10 µM.

For the origin of these results see publication doi:10.1101/2024.08.19.608619, “Discovery of potent SARS-CoV-2 nsp3 macrodomain inhibitors uncovers lack of translation to cellular antiviral response” (bioRxiv, 2024).
